What was measured:
[1] = DPPH radical scavenging assay; conditions: for IC50: 30 min incubation, λ = 517 nm
Experimental: The DPPH^• radical scavenging assay is based on transferring a hydrogen atom from the tested compounds to the violet stable free radical DPPH^• (2,2-diphenyl-1-picrylhydrazyl radical), converting it into a yellow compound. The assay was conducted using tested compounds and references in concentrations ranging from 2 to 50 µM, according to our adaptation of the protocol of Brand-Williams et al.. The absorbance of the samples is given by the remaining unreacted reagent radical, and it is inversely proportional to the amount of DPPH^• neutralized. The absorbance of the samples was measured at λ = 517 nm after 30 min of incubation in the dark at room temperature. The DPPH^• radical scavenging activity of the compounds was calculated using Equation (1):(1) DPPH^• scavenging (%)=control absorbance−sample absorbance/control absorbance×100

[2] = ABTS radical cation decolorization assay; conditions: 10 min incubation, pH 7.4, λ = 734 nm
Experimental: The ABTS^•+ (2,2′-azinobis-(3-ethylbenzothiazoline-6-sulfonic acid) decolorization assay, based on the method of Re et al., was performed in the concentration range of 1 to 25 µM according to protocols previously reported by our group. The reagent was prepared in a 0.1 M potassium phosphate buffer (pH 7.4) and activated overnight with MnO2 [89]. Prior to use, the stability of the ABTS^•+ reagent was verified by checking its absorbance at λ = 734 nm over one hour, ensuring a consistent absorption of around 0.7. The mixtures were incubated for 10 min in the dark at room temperature. The absorbance of the samples is given by the remaining unreacted reagent radical, and it is inversely proportional to the amount of ABTS^•+ neutralized. The ABTS^•+ scavenging activity of compounds was calculated using Equation (2).(2) ABTS^•^+ scavenging (%)=control absorbance−sample absorbance/control absorbance×100

[3] = test system: rat microsomal membrane lipid peroxidation; assay: Lipid peroxidation inhibition assay (LPI), 2-thiobarbituric acid method; type: biochemical; conditions: for IC50: ascorbic acid/Fe^2+ system, 37 °C, 45 min
Experimental: Rat liver microsomes were homogenized in saline, and the resulting homogenates were centrifuged at 9000× g for 20 min at 4 °C to remove cell debris. The supernatant underwent ultracentrifugation at 110,000× g for 40 min at 4 °C. The pelleted microsomal fraction was subsequently washed with saline via another round of ultracentrifugation under identical conditions. Thereafter, the pellet was resuspended in Tris-HCl buffer (pH 7.4) to achieve a concentration equivalent to 0.5 g liver per mL and was stored until further analysis (at −80 °C). For the assay, the microsomal preparation was thermally inactivated by incubation at 90 °C for 90 s, then homogenized again and diluted to a final concentration equivalent to 4 mM fatty acid equivalents. […] All mixtures were incubated at 37 °C under air with continuous shaking. […] This was followed by heating at 90 °C for 20 min and centrifugation at 3000 rpm for 15 min. As a result of the breakdown of unsaturated fatty acids, malondialdehyde reacts with the 2-thiobarbituric acid to produce a pink compound due to the formation of a Schiff base. The extent of lipid peroxidation was measured spectrophotometrically at 535/600 nm, which is proportional to the amount of the chromogen reaction product formed between 2-thiobarbituric acid and malondialdehyde. The determinations were performed in triplicate, and the standard deviation was within ±10% of the mean value.

[4] = Ferric Reducing Antioxidant Potential (FRAP) assay; conditions: molar equivalents of reference compound
Source text: The results of the evaluation of the electron ability transfer of the tested compound were expressed as molar equivalents of the reference compound per one mol of the tested compound using the formula: % of control activity=sample absorbance/reference absorbance×100 The Ferric Reducing Antioxidant Potential (FRAP) assay measures the ability of an antioxidant to transfer an electron to Fe^3+, converting it to Fe^2+. […] The solutions were thoroughly mixed in the dark, and their absorbance was measured spectrophotometrically at λ = 593 nm.

[5] = Indirect 1O2 scavenging assay (ICG photo-generator, DPBF probe); conditions: 10^−5 M ICG and scavenger, 785 nm laser, 100 s
Experimental: The ^1O2 scavenging assay was employed using a previously established indirect protocol from our research group. In brief, indocyanine green (ICG), from Sigma–Aldrich (St. Louis, MO, USA), was utilized to induce ^1O2 production in the presence of 5a and 5b. Ascorbic acid was used as a reference antioxidant agent, and a blank sample without ^1O2 scavengers was prepared. The reaction mixtures were exposed to a Micro Raman System R-3000 (Photonitech, Singapore, Singapore) laser diode,(λ = 785 nm, 190 mW power) for a total time of 100 s. To evaluate the ^1O2 scavenging activity of the compounds 5a,b, the degradation of 1,3-diphenylisobenzofuran (DPBF), obtained from Alfa Aesar (Haverhill, MA, USA), was measured using a V-730 spectrophotometer (Jasco International Co., Ltd., Tokyo, Japan). To determine the ^1O2 quantum yields (Φ(^1O2)) of ICG in the presence of the studied molecules, the following equation was used: Φ(^1O2) = Φ(^1O2) ^ICG × ((S × F^ICG)/(S^ICG × F)), where S represents the slope of the absorbance difference of DPBF over time, F is the absorption correction factor (F = 1 − 10^−OD), and OD is the optical density at the excitation wavelength, λ = 785 nm. The Φ(^1O2) equal to 15.0% of free ICG was used as a reference. The concentrations utilized in the experiment were 0.1 mM for DPBF and 10^−5 M for ICG and the ^1O2 scavengers. Free DPBF was used as a control.
The efficacy of compounds 5a,b against ^1O2 was assessed using an indirect approach. ICG was used as a photo-induced ^1O2 generator alongside DPBF, serving as an indirect chemical probe capable of characterizing ^1O2 release in solution. This setup allowed us to evaluate the ^1O2 scavenging capacity of the tested molecules and compare their activity to a reference compound, specifically ascorbic acid. The samples were exposed to 785 nm laser radiation, and at 10-s intervals after irradiation, their UV-Vis absorption spectra were measured and analyzed (Figure 9). Subsequently, we determined the ^1O2 quantum yields (Φ(^1O2)) of ICG in the presence of 5a,b and ascorbic acid, using the Φ(^1O2) of free ICG of 15.0% as reference.

| Structure (SMILES) | IC50 [1] [µM] | IC50 [2] [µM] | IC50 [3] [µM] | FRAP Eq Trolox [4] [Eq Trolox] | ^1O2 quantum yield Φ(^1O2) of ICG in the presence of the scavenger [5] [%] | fold higher activity than the reference compounds in the DPPH^• scavenging assay ([1]; compared to ascorbic acid and Trolox) | fold more active than Trolox in lipid peroxidation inhibition [3] |
| --- | --- | --- | --- | --- | --- | --- | --- |
| CC1=C(/C=C/C(C)=N/Nc2nc(-c3ccc(O)c(O)c3)cs2)C(C)(C)CCC1.Cl [Compound 5b, 4-(2-(2-((2E,3E)-4-(2,6,6-trimethylcyclohex-1-en-1-yl)but-3-en-2-ylidene) hydrazineyl)thiazol-4-yl)benzene-1,2-diol hydrochloride] | 18.4 | 5.03 | 12.9 | 1.39 | 11 | – | – |
| C/C=C/C=N/Nc1nc(-c2ccc(O)c(O)c2)cs1.Cl [Compound 5a, 4-(2-(2-((1E,2E)-but-2-en-1-ylidene)hydrazineyl)thiazol-4-yl)benzene-1,2-diol hydrochloride] | 9.8 | 4.67 | 3.34 | 1.49 | 11.1 | up to 5 fold | approximately 7.5 fold |
